Here are results for 1 molecule from patent publication US8664276B2, “Stilbene analogs and methods of treating cancer” (University of Kentucky Research Foundation, priority 2011, dated 2014).

Molecules are shown by their SMILES. “Also recorded” adds a separate entry of the source.

The subject of the assay is Wnt target genes, Axin2 and c-Myc. The assay can be described thus: Western blot of Wnt target proteins in LS174 CRC cells. It counts as cell-based. Here is the method:
Western blot. Western blots were performed using the following antibodies: β-catenin (Sigma, C2206), c-Myc (Epitomics, 1472-1), Axin2 (Cell Signaling, 2151), β-Actin (Sigma, A1978), TCF4 (Epitomics, 2114-1) and pygopus2 (Santa Cruz, sc-74878), Cyclin D1 (Cell signaling, 2926).
Cyclin B1 levels were decreased, whereas p21^WAF1/CIP1 levels increased, consistent with the fact that p21^WAF1/CIP1 expression is repressed by c-Myc. β-catenin levels were not affected by resveratrol. Next, the mRNA levels of β-catenin target genes were analyzed using RT-PCR. Expression of survivin, Lgr5, CD44, and c-Myc were decreased in resveratrol-treated cells.
A panel of stilbene analogs was designed and synthesized (FIGS. 2, 3, 5A and 6A). […] However, the solubility of 4d was poor and it was not effective below 10 μM concentrations (data not shown). To improve its solubility and activity, compound 4d was modified with 2′-fluoro 4e, 3′-fluoro 4f and 4′-fluoro 4g substituents (FIG. 5D). Both compounds 4e and 4f had good activity at 10 μM, (E)-4-(2-fluorostyryl)-N,N-dimethylaniline.
Western blot and cell proliferation assay. The activity of fluorinated N,N-dialkylaminostilbenes (FIDAS or FIDAS agents) on Wnt signaling activity in cancer cells were analyzed by Western blot with antibodies against Wnt target genes, such as c-Myc, Axin2. The effects of FlDAS agents on cancer cell growth were analyzed using Cell Viability Analyzer (Beckman Coulter, Vi-Cell XR). These assays have been described previously (see Zhang et al., J. of Med. Chem. 54, 1288-1297 (2011)).

Consider `CN(C)c1ccc(/C=C/c2c(F)cccc2F)cc1` [4r, (E)-4-(2,6-Difluorostyryl)-N,N-dimethylaniline], for which the “repression of Wnt target genes at 10 μM” value (10 μM, CRC cells) is “repress Wnt target genes; also recorded: reduced the protein levels”. Moreover, under “CRC cells”, the “Wnt inhibitory activity in Western blot, qualitative or relative to a comparator” value is listed as “more active than compound 4e; also recorded: best activity”; the “protein levels of TCF4 and pygopus2” value is listed as “reduced”. The “inhibition of Wnt target genes at 2.5 μM” value (LS174 CRC cells, 2.5 μM) is recorded as “significantly inhibited”.
